Measured values taken from ChEMBL document CHEMBL1152110, “Tetraazaacenaphthene and tetraazaphenalene derivatives: A new class of hepatoprotectants: Part IV” (1995).

What was measured:
Type in all cases: functional
Rattus norvegicus [1] = test: Hepatoprotective activity against thioacetamide-induced toxicity in rats at a dose of 6 mg/Kg dose (p.o. x 7 days), expressed as % protection afforded in serum bilirubin levels
Rattus norvegicus [2] = test: Hepatoprotective activity against thioacetamide-induced toxicity in rats at a dose of 6 mg/Kg dose (p.o. x 7 days), expressed as % protection afforded in glutamate oxaloacetate transaminase (GOT) levels
Rattus norvegicus [3] = test: Hepatoprotective activity against thioacetamide-induced toxicity in rats at a dose of 6 mg/Kg dose (p.o. x 7 days) expressed as % protection afforded in […] (ALP) levels
Rattus norvegicus [4] = test: Hepatoprotective activity against thioacetamide-induced toxicity in rats at a dose of 6 mg/Kg dose (p.o. x 7 days), expressed as % protection afforded in glutamate pyruvate transaminase (GPT) levels
Rattus norvegicus [5] = test: Hepatoprotective activity against thioacetamide-induced toxicity in rats at a dose of 6 mg/Kg dose (p.o. x 7 days), expressed as % protection afforded in […] (ALP) levels

CCN1C(=N)C2C(=O)N(CC)C(=S)N3CCCN(C1=S)C23 (stereo unspecified)
Protection (Rattus norvegicus [1]): 50%
Protection (Rattus norvegicus [2]): 40%
Protection (Rattus norvegicus [3]): 48%
Protection (Rattus norvegicus [4]): 50%

CC/N=C(/S)N1CCn2c1c(C#N)c(=O)n(CC)c2=S
Protection (Rattus norvegicus [1]): 60%
Protection (Rattus norvegicus [2]): 31%
Protection (Rattus norvegicus [3]): 56%
Protection (Rattus norvegicus [4]): 70%

O=C1C2C(=O)N(c3ccccc3)C(=S)N3CCN(C(=S)N1c1ccccc1)C23 (stereo unspecified)
Protection (Rattus norvegicus [1]): 25%
Protection (Rattus norvegicus [2]): 27%
Protection (Rattus norvegicus [3]): 20%
Protection (Rattus norvegicus [4]): 18%

CCO/C(O)=C(\C1=NCCCN1)c1nnc(N)s1
Protection (Rattus norvegicus [1]): 22%
Protection (Rattus norvegicus [2]): 26%
Protection (Rattus norvegicus [3]): 38%
Protection (Rattus norvegicus [4]): 50%

CCN1C(=N)C2C(=O)N(CC)C(=S)N3CCN(C1=S)C23 (stereo unspecified)
Protection (Rattus norvegicus [1]): 57%
Protection (Rattus norvegicus [2]): 50%
Protection (Rattus norvegicus [3]): 17%
Protection (Rattus norvegicus [4]): 87%

CCO/C(O)=C(\C1=NCCN1)c1nnc(N)s1
Protection (Rattus norvegicus [5]): 19%
Protection (Rattus norvegicus [1]): 53%
Protection (Rattus norvegicus [2]): 33%
Protection (Rattus norvegicus [4]): 51%

SILYMARIN
Protection (Rattus norvegicus [1]): 61%
Protection (Rattus norvegicus [2]): 50%
Protection (Rattus norvegicus [3]): 47%
Protection (Rattus norvegicus [4]): 47%

CCN1C(=O)C2C(=O)N(CC)C(=S)N3CCN(C1=S)C23 (stereo unspecified)
Protection (Rattus norvegicus [1]): 31%
Protection (Rattus norvegicus [2]): 20%
Protection (Rattus norvegicus [3]): 22%
Protection (Rattus norvegicus [4]): 34%

Cc1ccccc1N1C(=O)C2C(=O)N(c3ccccc3C)C(=O)N3CCN(C1=O)C23 (stereo unspecified)
Protection (Rattus norvegicus [1]): 18%
Protection (Rattus norvegicus [2]): 18%
Protection (Rattus norvegicus [3]): 16%
Protection (Rattus norvegicus [4]): 15%
